Like-named read-outs stand apart in the source and are kept apart here. Each block holds one compound with its values, some of them ahead of it.
How the values were obtained:
[1] = test system: human proximal tubular cells (HK2); assay: ATP generation by Seahorse analysis in HK2 cells exposed to adenine; assay type: cell-based
[2] = test system: kidney cells; assay: Adenine toxicity to kidney cells (FIG. 13); assay type: cell-based
[3] = test system: kidney tubular cells; assay: Adenine stimulation of extracellular matrix molecules in kidney tubular cells; assay type: cell-based
[4] = test system: mTOR pathway; assay: Adenine-induced stimulation of mTOR pathway (P-S6K) in tubular cells (FIG. 28); assay type: cell-based; conditions: adenine challenge
From the text: The downstream pathways stimulated by adenine are PI3Kinase, AKT and mTOR (FIG. 28). […] Once mTOR is inhibited the downstream effect of adenine to stimulate matrix accumulation was reduced (FIG. 19).

[5] = test system: mice; assay: Adenine administration to mice (FIG. 30, 31); assay type: in vivo, mouse
From the text: FIG. 30. Adenine administration to mice increases serum sTNFR1 (A), plasma KIM-1 (B). (n=12 in control group and n=7 in adenine treated group, *p<0.05, **p<0.01, ***p<0.001, […] vs control by t-test or One-way ANOVA).
FIG. 31. Adenine administration to mice increases kidney (A) and heart (B) hypertrophy and mTOR mediated matrix molecules in the kidney (C). Quantitative assessment of phosphor-S6 kinase as a measure of mTOR (D), fibronectin/-b-actin (E) and collagen type 1 alpha 2 chain (F). (n=12 in control group and n=7 in adenine treated group, *p<0.05, **p<0.01, ***p<0.001, […] vs control by t-test or One-way ANOVA).
Patients with type 1 diabetes (n=8) or type 2 diabetes (n=8) have an increase in tissue levels of adenine in their kidney biopsies as compared to healthy controls (n=5)(FIG. 29). Adenine administration is causative of the major manifestations of diabetic kidney disease in a mouse model, including serum soluble tumor necrosis factor receptor-1 (sTNFR1) and plasma kidney injury […] (KIM1) (FIG. 30). Adenine also stimulates kidney hypertrophy and heart hypertrophy (FIG. 31) as well as kidney phosphor-S6-kinase (marker of mTOR activity), kidney fibronectin and kidney collagen type 1 alpha-2 chain (FIG. 31). An inhibitor of MTAP (DADMe-ImmA 10 mg/kg/d in drinking water for 8 weeks) reduces urine ACR, urine hydrogen peroxide (urine H2O2) and urine collagen in a mouse model of diabetic kidney disease (db/db mouse) (FIG. 32).

[6] = test system: mice challenged with adenine; assay: In vivo IRsiRNA #1 with adenine challenge in drinking water in mice (FIG. 35); design: species or system mouse
Method: (§1) FIG. 35. In vivo administration of IRsiRNA #1 reduced IR specifically in mouse kidney and prevented adenine-induced rise in BUN levels in mice. Mice were administered vehicle or kidney targeting IRsiRNA #1 prior to being challenged with adenine (5 mM) in the drinking water for 4 days.
as §1, with “In FIG.” for “FIG.”, “35, in” for “35. In”, “Blood Urea Nitrogen (BUN)” for “BUN”

[7] = test system: patients with hyperfiltration; assay: Urine adenine in type 1 diabetic patients with hyperfiltration treated with empagliflozin (FIG. 23); assay type: in vivo, human; conditions: high risk patients with hyperfiltration, after 8 weeks of treatment
From the text: FIG. 23. Empagliflozin reduces urine adenine levels in patients with hyperfiltration. Hyperfilterers (red lines and dots) and normofilterers (blue lines and dots). Overall effect of treatment (Visit 3 and 4 vs. Visit 12 and 13) on least square mean changes to log-transformed adenine levels is reported. Significant p-values stated. *p<0.05, **p<0.01.

[8] = test system: kidney cells; assay: Protection of kidney cells from cell death by MTAP inhibitor (FIG. 18); assay type: cell-based; conditions: cell stress due to reduction of MDM2
[9] = test system: mice undergoing ischemia-reperfusion injury; assay: Ischemia-reperfusion injury in mice, BUN (FIG. 25); assay type: in vivo, mouse; conditions: inhibitor given once before ischemia 30 min and reperfusion, BUN 24 h later
Method: FIG. 25. MTAP inhibitor DADMe-ImmA given once before ischemia-reperfusion injury prevents an increase in BUN levels in mice undergoing ischemia-reperfusion injury. Mice underwent ischemia for 30m followed by reperfusion and 24 h later, the BUN was measured.

[10] = test system: db/db mice; assay: MTAP inhibitor for 8 weeks in db/db mice (FIG. 32, 33); assay type: in vivo, mouse
Method: FIG. 32. […] Control (db/m) and diabetic (db/db) mice were treated from week 12 to week 20 with MTAP inhibitor (10 mg/kg/day in drinking water) and 24 h urine samples were collected and measured for albumin/creatinine ratio (A), hydrogen peroxide/creatinine ratio (B) and collagen/creatinine ratio (C). (*p<0.05, ANOVA, n=5-6/group)
FIG. 33. […] Control (db/m) and diabetic (db/db) mice were treated from week 12 to week 20 with MTAP inhibitor (10 mg/kg/day in drinking water) and kidney weight was standardized per tibia length (A). Kidney cortex was immunoblotted for fibronectin and laminin y1 and standardized for b-actin with quantitative data shown in (B) and (C), respectively. (*p<0.05, ANOVA, n=5-6/group)

[11] = test system: Kidney tubules (MCT) cells; assay: Adenine-induced fibronectin accumulation in MCT cells (FIG. 19); assay type: cell-based, mouse
Method: FIG. 19. Effect of Rapamycin and NaHS on Adenine. […] A. Kidney tubules (MCT) cells were pre-incubated with 10 nM of rapamycin for 30 min followed by incubation with 20 μM of adenine for 15 min. B. MCT cells were incubated with 20 μM of adenine and 250 μM NaHS for 15 min.

[12] = test system: db/db mice
Method: FIG. 26. […] NaHS administered for 4 weeks to db/db mice and db/m mice and MTAP/-b-actin and fibronectin/b-actin levels were evaluated by immunoblotting. Urine ACR was measured at end of 4-week period of NaHS administration.

[13] = test system: human insulin receptor mRNA; assay: Insulin receptor mRNA knockdown in HK2 cells by qRTPCR (FIG. 36); assay type: cell-based; conditions: 96 h after transfection, vs control siRNA
Method: FIG. 36. siRNA to Human and Pig Insulin receptor is effective to reduce mRNA for Insulin receptor in human kidney cells. Human kidney (HK2) proximal tubular cells were transfected with siRNA (4 ul from 10 um stock) using RNAiMax (6 ul in optiMEM) and plated on 6 well plates. After 48 h, the media was replaced with fresh media. After 96 h of the transfection, total RNA was isolated and subjected to cDNA synthesis followed by qRTPCR.
In this non-limiting example, siRNA targeting human/pig insulin receptor mRNA can reduce human insulin receptor in human tubular cells. (FIG. 36). In FIG. 36, siRNA to human and pig insulin receptor is effective to reduce mRNA for insulin receptor in human kidney cells. Human kidney (HK2) proximal tubular cells were transfected with siRNA (4 ul from 10 um stock) using RNAiMax (6 ul in optiMEM) and plated on 6 well plates. After 48 h, the media was replaced with fresh media. After 96 h of the transfection, total RNA was isolated and subjected to cDNA synthesis followed by qRTPCR.

[14] = test system: mouse insulin receptor mRNA; assay: Insulin receptor mRNA knockdown in MCT cells by qRTPCR (FIG. 34); assay type: cell-based; conditions: reverse transfection, 72 h
Method: (§2) FIG. 34. siRNAs to insulin receptor (IR) based on sequence in mouse and rat reduces IR in mouse kidney cells. Mouse cortical tubular (MCT) cells were reverse transfected with siRNAs targeting mouse and rat insulin receptor mRNA (m/r IRsiRNA #1 and m/r IR siRNA #5) using RNAiMax (6 ul in optiMEM) and plated on 6 well plates. After 72 h of incubation, total RNA was isolated and subjected to cDNA synthesis followed by qRTPCR (n=6/group, ****p<0.0001).
as §2, with “34 illustrates the administration of the siRNA for the insulin receptor to mice treated with adenine reduced insulin receptor in the kidney but not in liver and prevented the increase in blood urea nitrogen levels (FIG. 35). In FIG. 34,” for “34.”

[15] = adenine administration vs control
[16] = 10 mg/kg/day in drinking water, week 12 to 20, 24 h urine
[17] = 10 mg/kg/day, 8 weeks, kidney cortex immunoblot

ATP generation ([1]; dose dependence): dose-dependently reduced ATP generation
ATP generation ([1]; high doses of adenine): complete reduction of ATP generation
kidney collagen type 1 alpha-2 chain ([5]; adenine administration): stimulates
kidney fibronectin ([5]; adenine administration): stimulates
kidney phosphor-S6-kinase (marker of mTOR activity) ([5]; adenine administration): stimulates
plasma KIM-1 [5, 15]: increases
serum sTNFR1 [5, 15]: increases
elevation in BUN levels vs non-adenine group ([6]; vehicle and adenine 5 mM in drinking water for 4 days): 3 fold
Compound: Nc1ncnc2nc[nH]c12 [Adenine]
toxicity to kidney cells [2]: toxic to kidney cells
Type I collagen [3]: rapidly stimulates Type I collagen
fibronectin production [3]: stimulates
S6K phosphorylation (P-S6K) [4]: increased within minutes of adenine challenge
heart hypertrophy ([5]; adenine administration): stimulates
kidney hypertrophy ([5]; adenine administration): stimulates

Compound: OC[C@H]1O[C@@H](c2ccc(Cl)c(Cc3ccc(O[C@H]4CCOC4)cc3)c2)[C@H](O)[C@@H](O)[C@@H]1O [Empagliflozin]
urine adenine/creatinine levels [7]: reduces urine adenine/creatinine levels

Compound: CSC[C@H]1CN(Cc2c[nH]c3c(N)ncnc23)C[C@@H]1O [MT-DADMe-ImmA, Methylthio-DADMe-Immucillin]
protection of kidney cells from cell death [8]: protects kidney cells from cell death
BUN [9]: no significant increase in BUN
urine ACR [10, 16]: reduces
urine H2O2 [10, 16]: reduces
urine collagen [10, 16]: reduces
kidney fibronectin [10, 17]: reduced
kidney laminin yI [10, 17]: reduced
kidney hypertrophy ([10]; 10 mg/kg/day, 8 weeks, kidney weight per tibia length): reduced

Compound: [Na+].[SH-] [NaHS, sodium hydrogen sulfide]
adenine-induced fibronectin production ([11]; MCT cells, 20 μM adenine and 250 μM NaHS for 15 min): inhibit adenine-induced fibronectin production
adenine-induced disease causing pathways (mTOR) ([11]; kidney cells, NaHS): protects against
healing pathways (AMPK) ([11]; kidney cells, NaHS): improving healing pathways (AMPK)
MTAP/b-actin by immunoblotting ([12]; NaHS 4 weeks, kidney): significant reduction
fibronectin/b-actin by immunoblotting ([12]; NaHS 4 weeks, kidney): significant reduction
urine ACR ([12]; end of 4-week NaHS administration): significant reduction

Compound: H/P IR siRNA #4: siRNA targeting human and pig IR mRNA, SEQ ID NO. 21 (+) and SEQ ID NO. 22 (−) (sense GGAAUGACCAGAGACAUCUAUGAAA; antisense UUUCAUAGAUGUCUCUGGUCAUUCCAA; listed as RNA, chemistry not fully specified)
human insulin receptor mRNA [13]: significant reduction

Compound: H/P siRNA #2: siRNA targeting human and pig IR mRNA, SEQ ID NO. 17 (+) and SEQ ID NO. 18 (−) (sense CAGUACGUCAUUCACAACAACAAGU; antisense ACUUGUUGUUGUGAAUGACGUACUGGU; listed as RNA, chemistry not fully specified)
human insulin receptor mRNA [13]: significant reduction

Compound: m/r IR siRNA #5: siRNA targeting mouse/rat IR mRNA, SEQ ID NO. 9 (+) and SEQ ID NO. 10 (−) (sense AAAUCAGUUCCUCAAAUUGACCAAU; antisense AUUGGUCAAUUUGAGGAACUGAUUUUG; listed as RNA, chemistry not fully specified)
mouse insulin receptor at mRNA level [14]: significant reduction

Compound: m/r IRsiRNA #1: siRNA targeting mouse/rat IR mRNA, SEQ ID NO. 1 (+) and SEQ ID NO. 2 (−) (sense GGCUCUGUCCGCAUCGAGAAGAAUA; antisense UAUUCUUCUCGAUGCGGACAGAGCCCC; listed as RNA, chemistry not fully specified)
mouse insulin receptor at mRNA level [14]: significant reduction
IR in mouse kidney cortex ([6]; day 4, immunoblot vs control sample): reduction of IR in mouse kidney cortex
BUN levels ([6]; siRNA before adenine 5 mM in drinking water for 4 days): no increase in BUN levels

Reference: patent publication US20250369050A1, “METHODS AND COMPOSITIONS RELATED TO ASSESSMENT AND TREATMENT OF KIDNEY DISEASE” (Board of Regents, The University of Texas System, priority 2022, published 2025)
